How the values were obtained:
[1] = molecular target: AMPK alpha2/beta2/gamma3 (Homo sapiens) (UniProt P54646+O43741+Q9UGI9); assay: Activation of human AMPK alpha2/beta2/gamma3 transiently transfected in HEK293 cells assessed as phosphorylation at […]Thr172 by measuring asymptotic max incubated for 20 mins by AlphaLISA assay relative to control; format: cell-based
[2] = molecular target: AMPK alpha2/beta2/gamma3 (Homo sapiens, UniProt O43741+P54646+Q9UGI9); assay: Activation of human AMPK (alpha2/beta2/gamma3) transiently transfected in HEK293 cells assessed as phosphorylation at […]Thr172 incubated for 20 mins by AlphaLISA assay; format: cell-based
Sequence of AMPK alpha2/beta2/gamma3 (P54646 whole entry): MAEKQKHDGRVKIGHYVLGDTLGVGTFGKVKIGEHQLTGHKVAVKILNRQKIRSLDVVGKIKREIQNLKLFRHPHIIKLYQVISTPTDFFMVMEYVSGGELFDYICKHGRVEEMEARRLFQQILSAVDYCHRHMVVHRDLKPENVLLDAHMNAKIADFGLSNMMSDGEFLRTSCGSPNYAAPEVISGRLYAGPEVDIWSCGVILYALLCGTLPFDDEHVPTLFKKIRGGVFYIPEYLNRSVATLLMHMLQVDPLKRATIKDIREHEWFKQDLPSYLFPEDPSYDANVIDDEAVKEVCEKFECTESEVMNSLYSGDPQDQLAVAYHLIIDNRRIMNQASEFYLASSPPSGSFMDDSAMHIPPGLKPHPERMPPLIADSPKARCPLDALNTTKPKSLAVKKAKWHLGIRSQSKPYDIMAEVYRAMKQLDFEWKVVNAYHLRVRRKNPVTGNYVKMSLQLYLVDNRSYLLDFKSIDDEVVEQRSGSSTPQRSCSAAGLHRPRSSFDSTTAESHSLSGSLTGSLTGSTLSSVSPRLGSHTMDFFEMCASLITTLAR
Sequence of AMPK alpha2/beta2/gamma3 (O43741 whole entry): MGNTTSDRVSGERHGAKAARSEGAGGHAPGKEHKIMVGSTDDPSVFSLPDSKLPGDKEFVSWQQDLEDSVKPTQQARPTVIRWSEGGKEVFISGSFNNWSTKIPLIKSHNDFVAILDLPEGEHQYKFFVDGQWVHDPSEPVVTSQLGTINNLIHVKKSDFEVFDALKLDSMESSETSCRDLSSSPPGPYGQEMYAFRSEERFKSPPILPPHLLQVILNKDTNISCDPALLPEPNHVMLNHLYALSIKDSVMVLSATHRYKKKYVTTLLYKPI
Sequence of AMPK alpha2/beta2/gamma3 (Q9UGI9 whole entry): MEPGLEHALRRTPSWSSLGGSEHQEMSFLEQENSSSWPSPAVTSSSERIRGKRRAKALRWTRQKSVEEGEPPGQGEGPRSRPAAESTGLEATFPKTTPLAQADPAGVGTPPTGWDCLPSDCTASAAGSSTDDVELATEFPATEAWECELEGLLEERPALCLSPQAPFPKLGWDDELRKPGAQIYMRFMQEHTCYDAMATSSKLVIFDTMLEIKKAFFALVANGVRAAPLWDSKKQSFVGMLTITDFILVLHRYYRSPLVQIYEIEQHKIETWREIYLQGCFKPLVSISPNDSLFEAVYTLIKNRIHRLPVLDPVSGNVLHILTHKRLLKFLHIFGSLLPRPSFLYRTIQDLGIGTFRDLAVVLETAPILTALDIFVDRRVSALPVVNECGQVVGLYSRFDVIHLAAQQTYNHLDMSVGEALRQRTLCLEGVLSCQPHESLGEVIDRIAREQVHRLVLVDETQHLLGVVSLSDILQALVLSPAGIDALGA

Sequence of AMPK alpha2/beta2/gamma3 (Homo sapiens) (O43741 whole entry, looked up): as the sequence (O43741 whole entry) above
Sequence of AMPK alpha2/beta2/gamma3 (Homo sapiens) (P54646 whole entry, looked up): as the sequence (P54646 whole entry) above
Sequence of AMPK alpha2/beta2/gamma3 (Homo sapiens) (Q9UGI9 whole entry, looked up): as the sequence (Q9UGI9 whole entry) above

| SMILES | max activation [1] | max activation ([1]; filed as activator) | EC50 [2] |
| --- | --- | --- | --- |
| C[C@]1(c2cccc(Cl)c2F)CN(c2cc(OC(F)F)ccn2)C(=O)c2cnc(NC3CN(C(=O)[C@@H]4C[C@@H]4F)C3)c(F)c21 | 30.9% | – | – |
| Cn1cc(F)c(N2CC(C)(c3cccc(Cl)c3F)c3c(cnc(NC4CN([C@H]5CCCNC5=O)C4)c3F)C2=O)n1 (some centres not stated) | – | 119% | 27.2 nM |
| Cn1cc(F)c(N2C[C@](C)(c3cccc(Cl)c3F)c3c(cnc(NC4CN(C(=O)[C@@H]5C[C@@H]5F)C4)c3F)C2=O)n1 | – | 81.7% | – |
| Cn1cc(F)c(N2CC(C)(c3cccc(Cl)c3F)c3c(cnc(N[C@@H]4CCN(C(=O)N5C[C@@H]6C[C@H]5CO6)C4)c3F)C2=O)n1 (some centres not stated) | – | 52.2% | – |
| C[C@]1(c2cccc(Cl)c2F)CN(c2ncccc2F)C(=O)c2cnc(NC3CN(C(=O)C4(O)CC4)C3)c(F)c21 | – | 112% | – |
| CC1(c2ccc(F)c(Cl)c2F)CN(c2ccc(CO)cn2)C(=O)c2cnc(NC3CN(C(=O)N4C[C@@H]5C[C@H]4CO5)C3)c(F)c21 (some centres not stated) | – | 113% | – |
| Cn1cc(F)c(N2C[C@](C)(c3cccc(Cl)c3F)c3c(cnc(NC4CN(C(=O)[C@@](C)(O)C5CC5)C4)c3F)C2=O)n1 | – | 89.6% | 21.3 nM |
| Cn1cc(F)c(N2C[C@](C)(c3cccc(Cl)c3F)c3c(cnc(NC4CN(C(=O)C5CCC(F)(F)CN5)C4)c3F)C2=O)n1 (some centres not stated) | – | 85.5% | – |
| CN1CCCC(N2CC(Nc3ncc4c(c3F)[C@@](C)(c3cccc(Cl)c3F)CN(c3nn(C)cc3F)C4=O)C2)C1=O (some centres not stated) | – | 139% | – |

Now from value to compound:

| max activation [1] | max activation ([1]; filed as activator) | EC50 [2] | SMILES |
| --- | --- | --- | --- |
| – | 154% | 2500 nM | CNCc1ccc(N2C[C@](C)(c3cccc(Cl)c3F)c3nc(NC4CN(C(=O)[C@@H]5C[C@@H]5F)C4)ncc3C2=O)cc1F |
| – | 100% | – | Cn1cc(F)c(N2C[C@](C)(c3cccc(Cl)c3F)c3c(cnc(NC4CN(C(=O)C(O)CC(F)(F)F)C4)c3F)C2=O)n1 (some centres not stated) |
| – | 106% | – | CC1(c2cccc(Cl)c2F)CN(c2ncccc2F)C(=O)c2cnc(NC3CN(C(=O)N4CCC[C@@H]4CO)C3)nc21 (some centres not stated) |
| – | 90% | – | Cn1cc(F)c(N2C[C@](C)(c3cccc(Cl)c3F)c3c(cnc(NC4CN(C(=O)CC(F)(F)F)C4)c3F)C2=O)n1 |
| – | 120% | – | C[C@]1(c2cccc(Cl)c2F)CN(c2ccc([C@@H]3COCCN3)cn2)C(=O)c2cnc(NC3CN(C(=O)c4cccnn4)C3)c(F)c21 |

Source: ChEMBL document CHEMBL6103606, “AMP-Activated Protein Kinase Activators as Therapeutic Targets To Treat Heart Failure and Diseases That Can Benefit from Improved Muscular Performance” (ACS Med Chem Lett, 2025)
